Our source for the IC50 values is patent US10640534B2 (Agios Pharmaceuticals, Inc., priority 2012, dated 2020).

Broadly, the IC50 is the point on the concentration scale where inhibition reaches its midpoint. High values mean weaker potency in that assay, low ones greater potency in that assay.

For the assay, the system named is U87MG cells. Description: Cellular assay, inhibition of 2-HG production in U87MG cells. It counts as cell-based. Conditions: Homo sapiens, U-87 MG, 48 h. In a few lines:
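HT1080 or U87MG cells (U87MG kept with 500 ug/mL G418) seeded at 5000 cells/well and treated with compound at 0.2% final DMSO. Incubated 48 h at 37 °C. 2-HG inhibition determined by LC-MS. Viability read by CellTiter-Glo luminescence at 72 h post-dose.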

Consider `N#Cc1cnc(N2C(=O)CC[C@H]2C(=O)N(c2cc(F)cc(F)c2)[C@H](C(=O)NC2CC(F)(F)C2)c2ccccc2Cl)o1` [Compound 162, (S)—N—((S)-1-(2-chlorophenyl)-2-((3,3-difluorocyclobutyl)amino)-2-oxoethyl)-1-(5-cyanooxazol-2-yl)-N-(3,5-difluorophenyl)-5-oxopyrrolidine-2-carboxamide], for which the IC50 was under 100 nM.
With `[2H]c1c([2H])c([2H])c([C@@H](C(=O)NC2CC(F)(F)C2)N(C(=O)[C@@H]2CCC(=O)N2c2cc(C#N)ccn2)c2cc(F)cc(F)c2)c(Cl)c1[2H]` [Compound 163] the figure was under 100 nM.
With `COc1cccc(N(C(=O)[C@@H]2CCC(=O)N2c2nccc(C#N)n2)[C@H](C(=O)NC2CC(F)(F)C2)c2ccccc2Cl)c1` [Compound 164, (S)—N—((S)-1-(2-Chlorophenyl)-2-(3,3-difluorocyclobutyl-amino)-2-oxoethyl)-1-(4-cyanopyrimidin-2-yl)-N-(3-methoxyphenyl)-5-oxopyrrolidine-2-carboxamide] the figure was under 100 nM.
In turn, `N#Cc1cccc(N(C(=O)[C@@H]2CCC(=O)N2c2cc(C#N)ccn2)[C@H](C(=O)NC2CCC(F)(F)CC2)c2ccccc2Cl)c1` [Compound 166, (S)—N—((S)-1-(2-Chlorophenyl)-2-((4,4-difluorocyclohexyl)amino)-2-oxoethyl)-N-(3-cyanophenyl)-1-(4-cyanopyridin-2-yl)-5-oxopyrrolidine-2-carboxamide] had an IC50 of under 100 nM.
With `N#Cc1cccc(N(C(=O)[C@@H]2CCC(=O)N2c2nccc(C#N)n2)[C@H](C(=O)NC2CC(F)(F)C2)c2ccccc2Cl)c1` [Compound 167, (S)—N—((S)-1-(2-Chlorophenyl)-2-((3,3-difluorocyclobutyl)amino)-2-oxoethyl)-N-(3-cyanophenyl)-1-(4-cyanopyrimidin-2-yl)-5-oxopyrrolidine-2-carboxamide] the figure was under 100 nM; with `CS(=O)(=O)c1cc(F)cc(N(C(=O)[C@@H]2CCC(=O)N2c2nccc(C#N)n2)[C@H](C(=O)NC2CCC(F)(F)CC2)c2ccccc2Cl)c1` [Compound 168, (S)—N—((S)-1-(2-Chlorophenyl)-2-((4,4-difluorocyclohexyl)amino)-2-oxoethyl)-1-(4-cyanopyrimidin-2-yl)-N-(3-fluoro-5-(methylsulfonyl)phenyl)-5-oxopyrrolidine-2-carboxamide], under 100 nM.
`N#Cc1cc(F)cc(N(C(=O)[C@@H]2C[C@@H](O)C(=O)N2c2cc(C#N)ccn2)C(C(=O)NC2CC(F)(F)C2)c2ccccc2Cl)c1` (stereo partly drawn) [Compound 169, (2S,4R)—N-(1-(2-Chlorophenyl)-2-(3,3-difluorocyclobutylamino)-2-oxoethyl)-N-(3-cyano-5-fluorophenyl)-1-(4-cyanopyridin-2-yl)-4-hydroxy-5-oxopyrrolidine-2-carboxamide] displayed an IC50 of under 100 nM.
On to `N#Cc1cccc(N(C(=O)[C@@H]2C[C@@H](O)C(=O)N2c2cc(C#N)ccn2)C(C(=O)NC2CC(F)(F)C2)c2ccccc2Cl)c1` (stereo partly drawn) [Compound 170, (2S,4R)—N-(1-(2-chlorophenyl)-2-((3,3-difluorocyclobutyl)amino)-2-oxoethyl)-N-(3-cyano-phenyl)-1-(4-cyanopyridin-2-yl)-4-hydroxy-5-oxopyrrolidine-2-carboxamide], for which the concentration for half-maximal inhibition (IC50) is under 100 nM.
With `N#Cc1ccnc(N2C(=O)[C@@H](O)C[C@H]2C(=O)N(c2cc(F)cc(F)c2)[C@H](C(=O)NC2CC(F)(F)C2)c2ccccc2Cl)c1` [Compound 171, (2S,4S)—N—((S)-1-(2-Chlorophenyl)-2-((3,3-difluorocyclobutyl)amino)-2-oxoethyl)-1-(4-cyano-pyridin-2-yl)-N-(3,5-difluorophenyl)-4-hydroxy-5-oxopyrrolidine-2-carboxamide] the figure was under 100 nM.
As for `N#Cc1ccnc(N2C(=O)[C@@H](O)C[C@H]2C(=O)N(c2cccc(F)c2)[C@H](C(=O)NC2CCC(F)(F)CC2)c2ccccc2Cl)c1` [Compound 172, (2S,4S)—N—((S)-1-(2-Chlorophenyl)-2-((4,4-difluorocyclohexyl)amino)-2-oxoethyl)-1-(4-cyano-pyridin-2-yl)-N-(3-fluorophenyl)-4-hydroxy-5-oxopyrrolidine-2-carboxamide], the figure is under 100 nM; as for `N#Cc1ccnc(N2C(=O)CC[C@H]2C(=O)N(c2cccc(C3CC3)c2)[C@H](C(=O)NC2CC(F)(F)C2)c2ccccc2Cl)c1` [Compound 173, (S)—N—((S)-1-(2-Chlorophenyl)-2-((3,3-difluorocyclobutyl)amino)-2-oxoethyl)-1-(4-cyanopyridin-2-yl)-N-(3-cyclopropylphenyl)-5-oxopyrrolidine-2-carboxamide], under 100 nM.
Molecule `N#Cc1ccnc(N2C(=O)[C@@H](O)C[C@H]2C(=O)N(c2cc(F)cc(F)c2)[C@H](C(=O)NC2CCC(F)(F)CC2)c2ccccc2Cl)c1` [Compound 174, (2S,4S)—N—((S)-1-(2-Chlorophenyl)-2-((4,4-difluorocyclohexyl)amino)-2-oxoethyl)-1-(4-cyanopyridin-2-yl)-N-(3,5-difluorophenyl)-4-hydroxy-5-oxopyrrolidine-2-carboxamide] returned a half-inhibitory concentration (IC50) of under 100 nM.
On to `N#Cc1ccnc(N2C(=O)CC[C@H]2C(=O)N(c2ccc3[nH]ncc3c2)[C@H](C(=O)NC2CC(F)(F)C2)c2ccccc2Cl)c1` [Compound 175, (S)—N—((S)-1-(2-Chlorophenyl)-2-((3,3-difluorocyclobutyl)amino)-2-oxoethyl)-1-(4-cyanopyridin-2-yl)-N-(1H-indazol-5-yl)-5-oxopyrrolidine-2-carboxamide], for which the IC50 is under 100 nM.
With `N#Cc1ccnc(N2C(=O)CC[C@H]2C(=O)N(c2cncc(F)c2)[C@H](C(=O)NC2CC(F)(F)C2)c2ccccc2Cl)c1` [Compound 176, (S)—N—((S)-1-(2-Chlorophenyl)-2-(3,3-difluorocyclobutylamino)-2-oxoethyl)-1-(4-cyanopyridin-2-yl)-N-(5-fluoropyridin-3-yl)-5-oxopyrrolidine-2-carboxamide] the figure was under 100 nM; with `N#Cc1cc(F)cc(N(C(=O)[C@@H]2CCC(=O)N2c2cc(C#N)ccn2)[C@H](C(=O)NC2CC(F)(F)C2)c2ccccc2Cl)c1` [Compound 177, (S)—N—((S)-1-(2-Chlorophenyl)-2-(3,3-difluorocyclobutylamino)-2-oxoethyl)-N-(3-cyano-5-fluorophenyl)-1-(4-cyanopyridin-2-yl)-5-oxopyrrolidine-2-carboxamide], under 100 nM.
As for `CC(C)(O)c1cccc(N(C(=O)[C@@H]2CCC(=O)N2c2cc(C#N)ccn2)[C@H](C(=O)NC2CC(F)(F)C2)c2ccccc2Cl)c1` [Compound 179, (S)—N—((S)-1-(2C)-2-((3,3-difluorocyclobutyl)amino)-2-oxoethyl)-1-(4-cyanopyridin-2-yl)-N-(3-(2-hydroxypropan-2-yl)phenyl)-5-oxopyrrolidine-2-carboxamide], the figure is under 100 nM.
As for `N#Cc1ccnc(N2C(=O)CC[C@H]2C(=O)N(c2cccc(OC(F)(F)F)c2)C(C(=O)NC2CC(F)(F)C2)c2ccccc2Cl)n1` (stereo partly drawn) [Compound 180, (2S)—N-(1-(2-Chlorophenyl)-2-((3,3-difluorocyclobutyl)amino)-2-oxoethyl)-1-(4-cyanopyrimidin-2-yl)-5-oxo-N-(3-(trifluoromethoxy)phenyl)pyrrolidine-2-carboxamide], the figure is under 100 nM.
Molecule `N#Cc1ccnc(N2C(=O)CC[C@H]2C(=O)N(c2cccc(C3CC3)c2)[C@H](C(=O)NC2CC(F)(F)C2)c2ccccc2Cl)n1` [Compound 182, (S)—N—((S)-1-(2-Chlorophenyl)-2-((3,3-difluorocyclobutyl)amino)-2-oxoethyl)-1-(4-cyanopyrimidin-2-yl)-N-(3-cyclopropylphenyl)-5-oxopyrrolidine-2-carboxamide] displayed a 50% inhibitory concentration (IC50) of under 100 nM.
With `N#Cc1cc(F)cc(N(C(=O)[C@@H]2CCC(=O)N2c2cc(C#N)ccn2)[C@H](C(=O)NC2CCC(F)(F)CC2)c2ccccc2Cl)c1` [Compound 184, (S)—N—((S)-1-(2-Chlorophenyl)-2-(4,4-difluorocyclohexylamino)-2-oxoethyl)-N-(3-cyano-5-fluorophenyl)-1-(4-cyanopyridin-2-yl)-5-oxopyrrolidine-2-carboxamide] the figure was under 100 nM; with `N#Cc1cc(F)cc(N(C(=O)[C@@H]2CCC(=O)N2c2nccc(C#N)n2)[C@H](C(=O)NC2CCC(F)(F)CC2)c2ccccc2Cl)c1` [Compound 185, (S)—N—((S)-1-(2-Chlorophenyl)-2-((4,4-difluorocyclohexyl)amino)-2-oxoethyl)-N-(3-cyano-5-fluorophenyl)-1-(4-cyanopyrimidin-2-yl)-5-oxopyrrolidine-2-carboxamide], under 100 nM.
`N#Cc1ccnc(N2C(=O)CC[C@H]2C(=O)N(c2ccccc2F)[C@H](C(=O)NC2CC(F)(F)C2)c2ccccc2Cl)c1` [Compound 187, (S)—N—((S)-1-(2-Chlorophenyl)-2-((3,3-difluorocyclobutyl)amino)-2-oxoethyl)-1-(4-cyanopyridin-2-yl)-N-(2-fluorophenyl)-5-oxopyrrolidine-2-carboxamide] had a half-inhibitory concentration (IC50) of under 100 nM.
As for `N#Cc1ccnc(N2C(=O)CC[C@H]2C(=O)N(c2cccc(F)c2F)[C@H](C(=O)NC2CC(F)(F)C2)c2ccccc2Cl)c1` [Compound 188, (S)—N—((S)-1-(2-Chlorophenyl)-2-((3,3-difluorocyclobutyl)amino)-2-oxoethyl)-1-(4-cyanopyridin-2-yl)-N-(2,3-difluorophenyl)-5-oxopyrrolidine-2-carboxamide], the figure is under 100 nM; as for `N#Cc1ccnc(N2C(=O)[C@@H](O)C[C@H]2C(=O)N(c2cccc(F)c2)[C@H](C(=O)NC2CCC(F)(F)CC2)c2ccccc2Cl)n1` [Compound 189, (2S,4S)—N—((S)-1-(2-Chlorophenyl)-2-((4,4-difluorocyclohexyl)amino)-2-oxoethyl)-1-(4-cyanopyrimidin-2-yl)-N-(3-fluorophenyl)-4-hydroxy-5-oxopyrrolidine-2-carboxamide], under 100 nM.
